Data reported in ChEMBL document CHEMBL4043270, “Design, synthesis and biological evaluation of 2-phenylquinoline-4-carboxamide derivatives as a new class of tubulin polymerization inhibitors” (Bioorg Med Chem, 2017).
Active and inactive are the calls of the source. The calls are words filed in the database; no cut-off is given here.

Legend:
A549 = test: Antiproliferative activity against human A549 cells by SRB assay; format: functional, cell-based
MRC5 = test: Antiproliferative activity against human MRC5 cells by SRB assay; format: cell-based
SK-OV-3 = test: Antiproliferative activity against human SKOV3 cells by SRB assay; format: functional, cell-based
HeLa = test: Antiproliferative activity against human HeLa cells by SRB assay; format: functional, cell-based
HCT-116 [1] = test: Antiproliferative activity against human HCT116 cells by SRB assay; format: functional, cell-based
MDA-MB-468 = test: Antiproliferative activity against human MDA-MB-468 cells by SRB assay; format: functional, cell-based
Homo sapiens = species: Homo sapiens; test: Displacement of colchicine from tubulin (unknown origin) at 0.1 to 10 uM after 1 hr by fluorescence assay
HCT-116 [2] = test: Induction of apoptosis in human HCT116 cells assessed as late apoptotic cells at 0.5 uM after 24 hrs by annexin-V FITC/propidium iodide staining based flow cytometry (reference value: 0.96%); format: functional
HCT-116 [3] = test: Cell cycle arrest in human HCT116 cells assessed as accumulation at S phase at 500 nM after 48 hrs by […]propidium iodide staining based flow cytometry (reference value: 8.93%); format: functional
HCT-116 [4] = test: Induction of Cyclin B1 accumulation in human HCT116 cells at 0.06 to 1 uM after 24 hrs by Western blot method; format: functional, cell-based
Bos taurus = species: Bos taurus; test: Inhibition of bovine tubulin polymerization at 125 to 725 nM measured every 60 secs intervals for 60 mins in presence of GTP by fluorescence assay
HCT-116 [5] = test: Induction of microtubule disruption in human HCT116 cells assessed as change in microtubule architecture at 0.5 uM after 24 hrs by DAPI staining based confocal microscopic method; format: functional, cell-based
HCT-116 [6] = test: Cell cycle arrest in human HCT116 cells assessed as accumulation at G1 phase at 125 nM after 48 hrs by […]propidium iodide staining based flow cytometry (reference value: 89.45%); format: functional
HCT-116 [7] = test: Induction of apoptosis in human HCT116 cells assessed as viable cells at 0.5 uM after 24 hrs by annexin-V FITC/propidium iodide staining based flow cytometry (reference value: 97.93%); format: functional; settings: HCT-116, 24 h, read-out: Activity
HCT-116 [8] = test: Cell cycle arrest in human HCT116 cells assessed as accumulation at G2/M phase at 125 nM after 48 hrs by […]propidium iodide staining based flow cytometry (reference value: 1.62%); format: functional
HCT-116 [9] = test: Cell cycle arrest in human HCT116 cells assessed as accumulation at S phase at 125 nM after 48 hrs by […]propidium iodide staining based flow cytometry (reference value: 8.93%); format: functional
HCT-116 [10] = test: Cell cycle arrest in human HCT116 cells assessed as accumulation at G1 phase at 500 nM after 48 hrs by […]propidium iodide staining based flow cytometry (reference value: 89.45%); format: functional
HCT-116 [11] = test: Cell cycle arrest in human HCT116 cells assessed as accumulation at G2/M phase at 500 nM after 48 hrs by […]propidium iodide staining based flow cytometry (reference value: 1.62%); format: functional
HCT-116 [12] = test: Induction of apoptosis in human HCT116 cells assessed as early apoptotic cells at 0.5 uM after 24 hrs by annexin-V FITC/propidium iodide staining based flow cytometry (reference value: 1.08%); format: functional
HCT-116 [13] = test: Induction of apoptosis in human HCT116 cells assessed as necrotic cells at 0.5 uM after 24 hrs by annexin-V FITC/propidium iodide staining based flow cytometry (reference value: 0.03%); format: functional

IC50 (A549) [µM]	IC50 (SK-OV-3) [µM]	IC50 (HeLa) [µM]	IC50 (HCT-116 [1]) [µM]	IC50 (MDA-MB-468) [µM]	SMILES	IC50 (MRC5) [µM]	further results
> 50	> 50	> 50	47.3	> 50	COc1ccc(NC(=O)c2cc(-c3ccc(C(F)(F)F)cc3)nc3ccccc23)c(C)c1	> 50	–
> 50	36.8	45.8	48.3	42.8	CSc1cccc(NC(=O)c2cc(-c3ccccc3)nc3ccccc23)c1	> 50	–
–	–	–	–	–	CC[C@]1(O)C[C@@H]2CN(CCc3c([nH]c4ccccc34)[C@@](C(=O)OC)(c3cc4c(cc3OC)N(C)[C@H]3[C@@](O)(C(=O)OC)[C@H](OC(C)=O)[C@]5(CC)C=CCN6CC[C@]43[C@@H]65)C2)C1	–	inhibition (Homo sapiens): inactive
11.6	4.2	9.5	1.7	17.4	COc1ccc(NC(=O)c2cc(-c3ccc(C)cc3)nc3ccccc23)c(C)c1	48.1	–
20.5	12.8	32.5	4.9	34.7	COc1ccc(NC(=O)c2cc(-c3ccccc3)nc3ccccc23)cc1	40.5	–
> 50	> 50	> 50	> 50	> 50	C=CCNC(=S)NC(=O)c1cc(-c2ccccc2)nc2ccccc12	> 50	–
> 50	32.5	> 50	> 50	> 50	COc1ccc(NC(=O)c2c3c(nc4ccc(Cl)cc24)-c2ccccc2CC3)c(C)c1	> 50	–
5.7	0.5	1.6	0.2	10.8	COc1cc(NC(=O)c2cc(-c3ccc(C)cc3)nc3ccccc23)cc(OC)c1OC	31.9	Activity (HCT-116 [2]): 39.47%; Activity (HCT-116 [3]): 7.87%; inhibition (Homo sapiens): Active; Activity (HCT-116 [4]): Active; inhibition (Bos taurus): Active; Activity (HCT-116 [5]): Active; Activity (HCT-116 [6]): 46.62%; viability at 0.5 µM (HCT-116 [7]): 15.2%; Activity (HCT-116 [8]): 48.17%; Activity (HCT-116 [9]): 5.21%; Activity (HCT-116 [10]): 4.93%; Activity (HCT-116 [11]): 87.2%; Activity (HCT-116 [12]): 45.26%; Activity (HCT-116 [13]): 0.04%
17.9	5.4	12.7	2.7	18.9	COc1cc(NC(=O)c2cc(-c3ccccc3)nc3ccccc23)cc(OC)c1OC	38.8	–
29.7	8.3	16.4	10.4	32.4	COc1ccc(NC(=O)c2cc(-c3ccc(C)cc3)nc3ccc(C)cc23)cc1	> 50	–
30.5	12.4	30.2	9.4	> 50	COc1ccc(NC(=O)c2cc(-c3cccc(C)c3)nc3ccccc23)cc1	> 50	–
30.1	12.3	20.4	11.9	46.1	COc1ccc(NC(=O)c2cc(-c3ccc(C)cc3)nc3ccc(C)cc23)c(C)c1	> 50	–
17.8	10.6	5.3	11.6	32.7	COc1cc(NC(=O)c2cc(-c3cccc(C)c3)nc3ccccc23)cc(OC)c1OC	42.3	–
23.7	8.4	16.4	7.8	20.1	COc1ccc(NC(=O)c2cc(-c3ccccc3)nc3ccccc23)c(C)c1	> 50	–
> 50	29.7	> 50	34.2	> 50	COc1ccc(NC(=O)c2cc(-c3ccccc3)nc3ccc(F)cc23)cc1	> 50	–
> 50	34.2	> 50	27.4	> 50	COc1ccc(NC(=O)c2cc(-c3ccccc3)nc3ccc(Cl)cc23)c(C)c1	> 50	–

IC50 (A549) [µM]	IC50 (SK-OV-3) [µM]	IC50 (HeLa) [µM]	IC50 (HCT-116 [1]) [µM]	IC50 (MDA-MB-468) [µM]	SMILES	IC50 (MRC5) [µM]	further results
> 50	36.7	42.8	31.4	> 50	COc1ccc(NC(=O)c2cc(-c3ccccc3C)nc3ccccc23)cc1	> 50	–
20.3	6.2	13.5	5.2	37.1	COc1cc(NC(=O)c2cc(-c3ccc(C)cc3)nc3ccc(C)cc23)cc(OC)c1OC	42.7	–
> 50	45.8	> 50	49.1	> 50	CCOc1ccc(NC(=O)c2cc(-c3ccccc3)nc3ccccc23)cc1	> 50	–
> 50	36.3	42.6	> 50	42.8	COc1cc(OC)c(NC(=O)c2cc(-c3ccccc3)nc3ccccc23)cc1Cl	> 50	–
45.7	42.2	> 50	43.6	41.6	COc1ccc(NC(=O)c2cc(-c3ccccc3C)nc3ccccc23)c(C)c1	> 50	–
> 50	> 50	> 50	36.1	> 50	O=C(NC(Cc1ccccc1)C(=O)OCc1ccccc1)c1cc(-c2ccccc2)nc2ccccc12 (configuration not stated)	> 50	–
18.5	6.3	25.2	3.7	35.2	COc1ccc(NC(=O)c2cc(-c3ccc(C)cc3)nc3ccccc23)cc1	47.8	–
32.5	17.4	40.5	12.9	34.7	COc1cccc(NC(=O)c2cc(-c3ccccc3)nc3ccccc23)c1	43.8	–
> 50	20.3	40.2	24.8	> 50	COc1ccc(NC(=O)c2cc(-c3ccccc3)nc3ccc(Cl)cc23)cc1	> 50	–
> 50	24.1	> 50	36.4	> 50	COc1cc(NC(=O)c2cc(-c3ccccc3)nc3ccc(Cl)cc23)cc(OC)c1OC	> 50	–
37.9	36.6	> 50	25.8	46.2	Cc1cc(NC(=O)c2cc(-c3ccccc3)nc3ccccc23)no1	> 50	–
> 50	38.9	36.8	29.5	> 50	COC(=O)C1=C(NC(=O)c2cc(-c3ccccc3)nc3ccccc23)NC=CN1	> 50	–
> 50	37.6	> 50	39.5	> 50	COc1ccc(NC(=O)c2c3c(nc4ccc(Cl)cc24)-c2ccccc2CC3)cc1	> 50	–
46.3	43.4	> 50	> 50	> 50	COc1ccc(NC(=O)c2cc(-c3ccc4c(c3)OCO4)nc3ccccc23)cc1	> 50	–
48.7	20.3	34.5	22.6	36.8	COC(=O)c1sccc1NC(=O)c1cc(-c2ccccc2)nc2ccccc12	46.3	–
23.6	15.3	10.4	14.6	32.1	COc1ccc(NC(=O)c2cc(-c3cccc(C)c3)nc3ccccc23)c(C)c1	> 50	–

SMILES	IC50 (A549) [µM]	IC50 (SK-OV-3) [µM]	IC50 (HeLa) [µM]	IC50 (HCT-116 [1]) [µM]	IC50 (MDA-MB-468) [µM]	IC50 (MRC5) [µM]	further results
COc1cc2c(c(OC)c1OC)-c1ccc(OC)c(=O)cc1[C@@H](NC(C)=O)CC2 [COLCHICINE]	0.02	0.05	0.5	0.01	0.06	0.09	–
